Laboratory results reported in PMC5618418, “Pharmacokinetics of Jaspine B and Enhancement of Intestinal Absorption of Jaspine B in the Presence of Bile Acid in Rats” (Marine Drugs, 2017).
Like-named read-outs stand apart in the source and are kept apart here.

Experiments:
[1] = Cumulative urinary and fecal excretion in metabolic cage; format: in vivo; settings: rat, IV 10 mg/kg, 72 h; for dose excreted: feces and urine combined, read-out: recovery of unaltered Jaspine B from combined feces and urine
Method: In the experiment using metabolic cages, feces were collected at 12, 24, 48, and 72 h following the IV administration of Jaspine B (10 mg/kg). Aliquots of 50 μL of urine and 10% feces homogenates were stored at −80 °C until the analysis.
Aliquots (50 μL) of plasma, bile, feces homogenates, and urine samples were added to 250 μL of acetonitrile containing 0.5 ng/mL of berberine (an internal standard). After vortexing for 10 min and centrifugation at 13,200 rpm for 5 min, an aliquot (2 μL) of the supernatant was injected directly into the LC-MS/MS system. For the analysis of plasma concentration, the standard curve range was 25–5000 ng/mL and the concentrations of quality control (QC) samples were 75, 500, and 3000 ng/mL, as described previously. Concentrations of Jaspine B in urine, bile, and feces homogenates were 5–300 ng/mL, 20–5000 ng/mL, and 20–5000 ng/mL, respectively. The concentrations of QC samples were 15, 100, and 300 ng/mL for urine samples and 75, 500, and 3000 ng/mL for bile and feces homogenates.

[2] = Pharmacokinetics after oral administration with or without taurocholate in control and bile-depleted rats; format: in vivo; settings: male, rat, plasma, 30 mg/kg; for bioavailability: oral 30 mg/kg vs IV 10 mg/kg, read-out: BA (oral bioavailability); for AUC(0-inf) / MRT / Tmax / half-life / AUC(0-t) / Cmax: oral 30 mg/kg; for AUC(0-t): read-out: AUC12h
Method: Male SD rats (aged 8–9 weeks, weighing 250–300 g) were obtained from Samtako Bio Korea, Inc. (Osan, Korea). The rats were acclimatized for 1 week in a temperature-controlled room (23 ± 2 °C) with a 12-h illumination cycle. Food and water were given ad libitum. All animal procedures were approved by the Animal Care and Use Committee of the Kyungpook National University (No. 2015-0064). The rats were fasted for at least 12 h before the oral administration of drugs.
The femoral artery, femoral vein, and bile duct were cannulated with polyethylene tubes (PE-50 and PE-10; Jungdo, Seoul, Korea) under light anesthesia with isoflurane.
For oral dosing, Jaspine B was dissolved in a vehicle containing DMSO: PEG400: saline (2:4:4, v/v/v) and was administered by oral gavages at a single dose of 30 mg/kg of Jaspine B concomitantly with or without 60 mg/kg TC (vehicle volume, 3 mL/kg) to the control and bile-depleted rats. Bile depletion was accomplished with 4 h drainage of bile through the bile cannula, which was cannulated to the bile duct using PE-10 tubing.
Blood samples (approximately 250 μL each) were collected from the femoral artery at 0, 0.25, 0.5, 1, 1.5, 2, 4, 8, and 12 h following the oral administration of Jaspine B. After centrifugation of blood samples at 13,200 rpm for 10 min, plasma samples (50 μL) were collected and stored at −80 °C until the analysis by liquid chromatography tandem-mass spectrometry (LC-MS/MS). Aliquots (50 μL) of plasma samples were added to 250 μL of acetonitrile containing 0.5 ng/mL of berberine (an internal standard). After vortexing for 10 min and centrifugation at 13,200 rpm for 5 min, an aliquot (10 μL) of the supernatant was injected directly into the LC-MS/MS system. The standard curve range was 5–2000 ng/mL and the concentrations of quality control (QC) samples were 60, 300, and 2000 ng/mL.
Pharmacokinetic parameters were determined using a non-compartmental analysis (WinNonlin® 2.0; Pharsight, Mountain View, CA, USA). Maximum plasma concentration (Cmax) and time to reach Cmax (Tmax) values were obtained from plasma concentration-time curves. The area under the plasma concentration–time curve from zero to infinity (AUC) was calculated using the trapezoidal-extrapolation method. For extrapolation, the area from the last data point to infinity was estimated by dividing the […].
However, in the case of bile-depleted rats, AUC∞ and T1/2 were not calculated because the elimination rate constant could not be obtained.

[3] = Apparent partition coefficient between n-octanol and PBS; format: physicochemical; settings: n-octanol/PBS pH 7.4, 10 mM TC vs absence of TC, 25 °C
Method: The effect of TC on the apparent partition coefficients (APC) of Jaspine B between aqueous and organic phases was investigated. n-Octanol and phosphate-buffered saline (PBS, pH 7.4) were used as the organic and aqueous phases, respectively, in the partition study. n-Octanol and PBS were saturated with respect to one another prior to use. An equal volume of n-octanol was added to PBS (5 mL each) containing Jaspine B (10 mM) and TC (0, 0.1, 1, 10, or 100 mM) in a screw-capped test tube, and the mixture was vortexed vigorously for 5 min followed by shaking for 2 h at 25 °C in a temperature-controlled water bath. After standing for 1 h at 25 °C in the water bath, the mixture was separated into two phases by centrifugation at 3000 rpm for 10 min. The concentration of Jaspine B in a 50-μL aliquot of aqueous and organic phase was measured. Briefly, 50 μL of sample was added to 250 μL of acetonitrile containing 0.5 ng/mL of berberine. After vortexing for 10 min and centrifugation at 13,200 rpm for 5 min, an aliquot (2 μL) of the supernatant was injected directly into the LC-MS/MS system. The APC was calculated from the concentration ratio of each compound between the octanol and PBS phases.

MCF-7 = tested on: MCF-7; design: method as in doi:10.5352/JLS.2016.26.12.1392; settings: MCF-7 breast cancer cells; cited from earlier work
HepG2 = tested on: HepG2; design: method as in doi:10.5352/JLS.2016.26.12.1392; settings: HepG2 hepatoma; cited from earlier work
[4] = SD, bile depletion + TC 60 mg/kg

dose excreted ([1]; SD (Sprague-Dawley)): 6.3%
dose excreted ([1]; Sprague-Dawley (SD)): ~6.3%
dose recovered from feces ([1]; metabolic cage): 4.7 ± 0.8%
dose recovered from urine ([1]; metabolic cage): 1.6 ± 0.7%
bioavailability ([2]; SD, bile-depleted rats, from AUC12h): 1.6%
bioavailability ([2]; SD, control rats): 6.2%
MRT ([2]; SD, bile-depleted rats): 6.1 ± 0.3 h
Tmax ([2]; SD, bile-depleted rats): 9.3 ± 2.3 h
AUC(0-t) ([2]; SD, bile-depleted rats): 80.3 ± 42.7 ng·h/mL
AUC(0-inf) ([2]; SD, control rats): 314 ± 76.1 ng·h/mL
MRT ([2]; SD, control rats): 4.9 ± 0.4 h
Tmax ([2]; SD, control rats): 2.5 ± 1.3 h
half-life ([2]; SD, control rats): 5.5 ± 1.1 h
AUC(0-t) ([2]; SD, control rats): 241 ± 57.8 ng·h/mL
Cmax ([2]; Sprague-Dawley, bile-depleted rats): 8.5 ± 2.8 ng/mL
Cmax ([2]; Sprague-Dawley, control rats): 36.3 ± 11.3 ng/mL
increase of partition coefficient [3]: 10 fold
Structure (SMILES): CCCCCCCCCCCCCC[C@@H]1OC[C@H](N)[C@@H]1O [Jaspine B]
bioavailability [2, 4]: 23.5%
bioavailability ([2]; SD, control + TC 60 mg/kg): 41.2%
AUC(0-inf) [2, 4]: 1200 ± 254 ng·h/mL
MRT [2, 4]: 4.9 ± 0.5 h
Tmax [2, 4]: 1 ± 0.5 h
half-life [2, 4]: 7.2 ± 1.5 h
AUC(0-t) [2, 4]: 828 ± 180 ng·h/mL
AUC(0-inf) ([2]; SD, control + TC 60 mg/kg): 2100 ± 419 ng·h/mL
Cmax ([2]; SD, control + TC 60 mg/kg): 174 ± 13 ng/mL
MRT ([2]; SD, control + TC 60 mg/kg): 5.5 ± 0.03 h
Tmax ([2]; SD, control + TC 60 mg/kg): 3.3 ± 2.3 h
half-life ([2]; SD, control + TC 60 mg/kg): 6.4 ± 2.8 h
AUC(0-t) ([2]; SD, control + TC 60 mg/kg): 1406 ± 4.3 ng·h/mL
Cmax ([2]; Sprague-Dawley, bile depletion + TC 60 mg/kg): 163 ± 28.4 ng/mL
IC50 (MCF-7): 2.31 µM
IC50 (HepG2): 5.69 µM
